In PubChem BioAssay AID1159536 (DiRusso Lab, Biochemistry Department, University of Nebraska, 2015) one finds EC50 data, which are given here for 77 compounds.

pEC50: −log10 of the molar value. Results filed as inconclusive are left out. Calls of active or inactive are those of the source. No rule for the calls is given here.

The test system of the experiment is Chlamydomonas reinhardtii, Nile Red lipid fluorescence, 72 h. Kind of experiment: algal triacylglycerol accumulation inducers, dose response, qHTS, Chlamydomonas reinhardtii (AID 1159536).
Consider `O=C1CC(N2CCC(C(O)(c3ccccc3)c3ccccc3)CC2)C(=O)N1c1ccc(F)cc1` (configuration not stated), for which the EC50 is 13.6 µM (inactive).
`COc1cc(C)c(CN2CCCN(C)CC2)cc1C`: the pEC50 was 4.99.
Turning to `CC1CCCN(C2CCN(S(=O)(=O)c3ccc(F)cc3)CC2)C1` (configuration not stated), the pEC50 was 4.88.
Still for that read-out and setting: for `C=C(C)CN(CC)C(=O)C1CCN(Cc2ccc(Cl)cc2)CC1` the value was 6.19; for `CC(C)=CCC[C@H](C)CCN1CCN(C)CC1`, 5.00.
As to `O=S(=O)(c1ccc(F)cc1)n1cccc1`, the EC50 is 0.684 µM (inactive).
On to `Cc1ccc(C(=O)Nc2ccccc2C(=O)NC(C)C)cc1[N+](=O)[O-]`, for which the EC50 was 0.635 µM (inactive).
For the compound `COc1ccc(C(=O)c2ccc(N3CCN(C)CC3)c([N+](=O)[O-])c2)cc1`, the EC50 is 1.27 µM (inactive).
`COc1cc(C(=O)Nc2ccc(S(=O)(=O)Nc3ncccn3)cc2)cc(OC)c1OC`: the EC50 was 30.9 µM (inactive).
As to `CN1CCN(Cc2cccc(Oc3ccccc3)c2)CC1`, the pEC50 is 5.00.
As to `COc1ccc(CNCc2ccc(C)cc2)c(OC)c1`, the EC50 was 9.94 µM (inactive).
Take `Clc1ccc(OCCOCCN2CCOCC2)c(Br)c1`: the negative-log EC50 (pEC50) was 5.10.
On to `Clc1ccc(N2CCN(Cc3ccsc3)CC2)cc1`, for which the negative-log EC50 (pEC50) was 5.90.
As to `CCOc1ccccc1C(=O)NC1CC1`, the EC50 is 26.5 µM (inactive).
In the case of `Cc1ccc(OCCOCCN2CCOCC2)c([N+](=O)[O-])c1`, the pEC50 was 5.57.
As for `Cc1ccc2nc(SCc3ccccc3)c(C=O)c(=O)n2c1`, the pEC50 was 5.39.
As for `CCOc1ccc(C2=CSC3=NCCN23)cc1`, the EC50 is 13.7 µM (inactive).
`Cc1cc(I)ccc1S(=O)(=O)NCCCN1CCOCC1`: the negative-log EC50 (pEC50) was 5.89.
`COc1cccc(NC2=C(N(C)C)C(=O)c3ccccc3C2=O)c1`: the EC50 is 1.87 µM (inactive).
Consider `COc1cc(CN2CCN(Cc3ccc([N+](=O)[O-])cc3)CC2)cc(OC)c1`, for which the pEC50 is 5.42.
On the same count and under the same terms, for `C(#CC12CC3CC(CC(C3)C1)C2)CN1CCOCC1` the value was 5.49.
As to `CC1CCCCN1S(=O)(=O)c1ccc(NC(=O)c2ccc(Cl)cc2Cl)cc1` (configuration not stated), the EC50 is 2.56 µM (inactive).
`OC(COc1ccccc1Br)CN1CCCCC1` (configuration not stated): the negative-log EC50 (pEC50) was 5.12.
In the case of `Cc1ccc(CN2CCN(CCO)CC2)cc1`, the pEC50 was 4.79.
Regarding `COc1ccccc1C(=O)N1CCN(C(=O)C(c2ccccc2)c2ccccc2)CC1`, the EC50 is 5.62 µM (inactive).
Turning to `CN1CCN(C2C3CC4CC(C3)CC2C4)CC1` (configuration not stated), the pEC50 was 5.01.
Consider `CCC(C)N1CCN(Cc2ccc([N+](=O)[O-])cc2)CC1` (configuration not stated), for which the pEC50 is 4.98.
As for `Clc1ccc(Cl)c(OCCCCN2CCNCC2)c1`, the pEC50 was 5.27.
In the case of `COc1ccc(OC)c(CNCCc2ccc([N+](=O)[O-])cc2)c1`, the pEC50 was 6.19.
With `COc1ccc(CN2CCN(C/C=C/c3ccccc3)CC2)cc1`, the pEC50 was 5.18.
Still for that read-out and setting: in the case of `CCOc1ccc(CN2CCN(c3ccccc3OC)CC2)cc1` it was 5.88; in that of `COc1ccc(CN2CCN(Cc3ccc([N+](=O)[O-])cc3)CC2)cc1OC`, 5.60; in that of `C(#CCN1CCCCC1)COc1ccccc1`, 5.31.
Consider `COc1cccc(N2CCN(Cc3ccc([N+](=O)[O-])cc3)CC2)c1`, for which the pEC50 was 6.18.
Same read-out and setting: in the case of `CC(C)c1ccc(CN2CCN(C)CC2)cc1` it was 5.46; in that of `Cc1ccc(C)c(N2CCN(C3CCCCCC3)CC2)c1`, 5.00; in that of `Cc1ccc(OCCCCN2CCCCC2)c(C)c1`, 4.95.
Take `O=C(Nc1ccc([N+](=O)[O-])cc1)c1cccc(Cl)c1Cl`: the EC50 is 2.35 µM (inactive).
Consider `COc1ccc(CCN(C)Cc2ccc([N+](=O)[O-])cc2)cc1OC`, for which the pEC50 was 5.00.
As to `Cc1ccc(C)c(N2CCN(C3CCc4ccccc4C3)CC2)c1` (configuration not stated), the pEC50 was 4.78.
For the compound `COc1ccccc1N1CCN(Cc2ccc(F)cc2)CC1`, the negative-log EC50 (pEC50) is 5.55.
Turning to `Cc1cc(Br)ccc1OCCOCCN1CCOCC1`, the pEC50 was 5.11.
Turning to `CN1CCN(Cc2ccc(-c3ccccc3Cl)o2)CC1`, the pEC50 was 5.48.
Take `COc1ccc(OC)c(CN2CCN(Cc3ccc([N+](=O)[O-])cc3)CC2)c1`: the pEC50 is 5.87.
For `Cc1ccc(S(=O)(=O)n2cccn2)cc1`, the EC50 is 12.9 µM (inactive).
Take `CCC(C)c1ccccc1OCCCCN1CCCC1` (configuration not stated): the pEC50 was 5.57.
As for `CC1(C)Oc2ccc(NC(=O)c3ccc(C(=O)c4ccccc4)cc3)cc2O1`, the EC50 is 8.94 µM (inactive).
For the compound `Cc1ccc(C(=O)Nc2ccc3oc(-c4ccncc4)nc3c2)cc1C`, the pEC50 is 5.80.
On the same count and under the same terms, in the case of `Clc1ccc(N2CCN(Cc3ccc4c(c3)OCO4)CC2)cc1` it was 5.88; in that of `Cc1ccc(OCC(O)CN(C)C2CCCCC2)cc1C` (configuration not stated), 5.35; in that of `CN1CCN(c2ccc([N+](=O)[O-])c(N3CCCCC3)c2)CC1`, 4.99.
For `CCSc1ccc(C(=O)Nc2ccc(Cc3ccncc3)cc2)cc1[N+](=O)[O-]`, the pEC50 is 5.58.
Regarding `Cc1cc(Cl)c(OCCOCCN2CCN(C)CC2)c(Br)c1`, the pEC50 is 5.51.
The same measure, in the same setting: for `CC1CCC(N2CCN(c3ccccc3)CC2)C1` (configuration not stated) the value was 6.20.
Turning to `Oc1ccccc1CNCCC12CC3CC(CC(C3)C1)C2`, the EC50 is 2.49 µM (inactive).
On to `COc1ccccc1NC(=O)N1CCN(c2ccccn2)CC1`, for which the pEC50 was 5.39.
Same read-out and setting: in the case of `Cc1cc(C)c(OCCCCN2CCNCC2)c(C)c1` it was 5.58.
The same measure, in the same setting: for `C1=CC2CC1CC2CN1CCN(C2CCC(c3ccccc3)CC2)CC1` (configuration not stated) the value was 5.84.
On the same count and under the same terms, for `Cc1cc(Br)ccc1OCCCCN1CCCC1` the value was 5.57.
For the compound `C=CCn1c(SCC(=O)O)nnc1-c1ccc([N+](=O)[O-])cc1`, the EC50 is 13.6 µM (inactive).
As to `Clc1ccc(OCCCN2CCOCC2)c(Br)c1`, the pEC50 is 4.98.
As to `Cc1ccc(N2CCN(C3CCCCCC3)CC2)cc1`, the pEC50 was 6.19.
On to `C/C=C(\C)CN1CCN(c2ccc(C)cc2)CC1`, for which the negative logarithm of the EC50 (pEC50) is 5.38.
Same read-out and setting: for `COc1ccc(CN2CCN(Cc3ccccc3)CC2)c(OC)c1OC` the value was 4.94.
On to `O=[N+]([O-])c1ccccc1CN1CCN(CC2CC3C=CC2C3)CC1` (configuration not stated), for which the EC50 was 11.7 µM (inactive).
As for `OC(COc1ccc(Cl)cc1Cl)CN1CCN(Cc2ccccc2)CC1` (configuration not stated), the pEC50 was 5.12.
In the case of `CCC(CC)C(=O)Nc1ccc(C(=O)Nc2nccs2)cc1`, the EC50 is 1.83 µM (inactive).
Take `CC(C)(C)c1ccc(OCC(O)CN2CCN(CCO)CC2)cc1` (configuration not stated): the negative logarithm of the EC50 (pEC50) is 5.89.
Regarding `C=CCn1c(SCC(=O)NCCc2ccccc2)nnc1-c1ccc(Cl)cc1Cl`, the pEC50 is 5.39.
Consider `CN(CCC#N)C12CC3CC(CC(C3)C1)C2`, for which the pEC50 is 5.06.
On to `CCOc1ccc(CN2CCN(c3ccc([N+](=O)[O-])cc3)CC2)cc1`, for which the pEC50 was 5.58.
On the same count and under the same terms, in the case of `O=[N+]([O-])c1ccc(CN2CCN(Cc3ccccc3)CC2)cc1` it was 5.20; in that of `O=[N+]([O-])c1ccc(C(O)CN2CCN(Cc3ccccc3)CC2)cc1` (configuration not stated), 4.90.
Same read-out and setting: in the case of `Clc1ccc(CN2CCCCCC2)cc1` it was 5.69; in that of `C1=CC2CC1CC2CN1CCN(c2ccccc2)CC1` (configuration not stated), 7.07.
In the case of `CN1CCCN(CC2=CC[C@H]3C[C@@H]2C3(C)C)CC1`, the negative-log EC50 (pEC50) was 4.99.
Regarding `CCc1cccc(OCC(=O)Nc2cc(OC)c(OC)cc2C(=O)O)c1`, the pEC50 was 5.86.
